# Source: ChEMBL document CHEMBL3046485, “Photodynamic activities of protoporphyrin IX and its dopamine conjugate against cancer and bacterial cell viability” (2012)
# The source made the active and inactive calls. No cut-off for these calls is given here.
# Tests used:
# Bacillus subtilis [1] = test: Antibacterial activity against Bacillus subtilis ATCC 6633 after 24 hr by two-fold serial dilution method; format: functional; settings: ATCC 6633, 24 h
# Escherichia coli [2] = test: Antibacterial activity against Escherichia coli ATCC 25922 after 24 hr by two-fold serial dilution method; format: functional; settings: ATCC 25922, 24 h
# Pseudomonas aeruginosa [3] = test: Antibacterial activity against Pseudomonas aeruginosa ATCC 27853 after 24 hr by two-fold serial dilution method; format: functional; settings: ATCC 27853, 24 h
# Bacillus subtilis [4] = test: Antibacterial activity against Bacillus subtilis ATCC 6633 at 16 ug/ml after 24 hr by two-fold serial dilution method; format: functional, organism-based
# HeLa [5] = test: Cytotoxicity against Homo sapiens (human) HeLa cells at 30 uM compound photoirradiated for 20 min followed by 24 hr incubation by LDH release assay; format: functional, cell-based
# HeLa [6] = test: Cytotoxicity against Homo sapiens (human) HeLa cells compound photoirradiated for 20 min followed by 24 hr incubation by LDH release assay; format: functional, cell-based
# Bacillus subtilis [7] = test: Antibacterial activity against Bacillus subtilis ATCC 6633 compound photoirradiated for 20 min followed by 24 hr incubation by two-fold serial dilution method; format: functional; settings: ATCC 6633, light or radiation study
# Pseudomonas aeruginosa [8] = test: Bacteriostatic activity against Pseudomonas aeruginosa ATCC 27853 after 24 hr by two-fold serial dilution method; format: functional, organism-based
# Bacillus subtilis [9] = test: Antibacterial activity against Bacillus subtilis ATCC 6633 at 16 ug/ml compound photoirradiated for 20 min followed by 24 hr incubation by two-fold serial dilution method; format: functional, organism-based
# SH-SY5Y [10] = test: Antiproliferative activity against Homo sapiens (human) SH-SY5Y cells at 5 uM after 24 hr by WST-1 assay; format: functional, cell-based
# U-87MG ATCC [11] = test: Cytotoxicity against Homo sapiens (human) U87 cells at 1 to 30 uM after 24 hr by LDH release assay; format: functional, cell-based
# Pseudomonas aeruginosa [12] = test: Antibacterial activity against Pseudomonas aeruginosa ATCC 27853 compound photoirradiated for 20 min followed by 24 hr incubation by two-fold serial dilution method; format: functional; settings: ATCC 27853, light or radiation study
# HeLa [13] = test: Antiproliferative activity against Homo sapiens (human) HeLa cells at 5 uM compound photoirradiated for 20 min followed by 24 hr incubation by WST-1 assay; format: functional, cell-based
# U-87MG ATCC [14] = test: Cytotoxicity against Homo sapiens (human) U87 cells compound photoirradiated for 20 min followed by 24 hr incubation by LDH release assay; format: functional, cell-based
# SH-SY5Y [15] = test: Cytotoxicity against Homo sapiens (human) SH-SY5Y cells at 1 to 30 uM after 24 hr by LDH release assay; format: functional, cell-based
# Escherichia coli [16] = test: Antibacterial activity against Escherichia coli ATCC 25922 compound photoirradiated for 20 min followed by 24 hr incubation by two-fold serial dilution method; format: functional; settings: ATCC 25922, light or radiation study
# U-87MG ATCC [17] = test: Antiproliferative activity against Homo sapiens (human) U87 cells at 5 uM after 24 hr by WST-1 assay; format: functional, cell-based
# HeLa [18] = test: Cytotoxicity against Homo sapiens (human) HeLa cells compound at 1 to 30 uM after 24 hr by LDH release assay; format: functional, cell-based
# SH-SY5Y [19] = test: Antiproliferative activity against Homo sapiens (human) SH-SY5Y cells at 5 uM compound photoirradiated for 20 min followed by 24 hr incubation by WST-1 assay; format: functional, cell-based
# U-87MG ATCC [20] = test: Antiproliferative activity against Homo sapiens (human) U87 cells at 5 uM compound photoirradiated for 20 min followed by 24 hr incubation by WST-1 assay; format: functional, cell-based
# HeLa [21] = test: Antiproliferative activity against Homo sapiens (human) HeLa cells at 5 uM after 24 hr by WST-1 assay; format: functional, cell-based
# SH-SY5Y [22] = test: Cytotoxicity against Homo sapiens (human) SH-SY5Y cells at 30 uM compound photoirradiated for 20 min followed by 24 hr incubation by LDH release assay; format: functional, cell-based
# U-87MG ATCC [23] = test: Cytotoxicity against Homo sapiens (human) U87 cells at 30 uM compound photoirradiated for 20 min followed by 24 hr incubation by LDH release assay; format: functional, cell-based
# SH-SY5Y [24] = test: Cytotoxicity against Homo sapiens (human) SH-SY5Y cells compound photoirradiated for 20 min followed by 24 hr incubation by LDH release assay; format: functional, cell-based
smiles,measurement,setting,value
CN[C@@H]1[C@H](O[C@H]2[C@H](O[C@H]3[C@H](O)[C@@H](O)[C@H](N=C(N)N)[C@@H](O)[C@@H]3N=C(N)N)O[C@@H](C)[C@]2(O)C=O)O[C@@H](CO)[C@H](O)[C@H]1O [STREPTOMYCIN],MIC,Bacillus subtilis [1],16 µg/mL
same,MIC,Escherichia coli [2],> 256 µg/mL
same,MIC,Pseudomonas aeruginosa [3],64 µg/mL
C=Cc1c(C)c2cc3[nH]c(cc4nc(cc5nc(cc1[nH]2)C(C)=C5CCC(=O)NCCc1ccc(O)c(O)c1)C(CCC(=O)NCCc1ccc(O)c(O)c1)=C4C)c(C)c3C=C,MIC,Bacillus subtilis [1],100 µg/mL
same,Activity,Bacillus subtilis [4],Active
same,Activity,HeLa [5],inactive
same,Activity,HeLa [6],Dose-dependent effect
same,MIC,Bacillus subtilis [7],80 µg/mL
same,MIC,Escherichia coli [2],128 µg/mL
same,Activity,Pseudomonas aeruginosa [8],Active
same,Activity,Bacillus subtilis [9],inactive
same,Activity,SH-SY5Y [10],inactive
same,Activity,U-87MG ATCC [11],inactive
same,MIC,Pseudomonas aeruginosa [12],128 µg/mL
same,Activity,HeLa [13],Active
same,Activity,U-87MG ATCC [14],Dose-dependent effect
same,Activity,SH-SY5Y [15],inactive
same,MIC,Escherichia coli [16],128 µg/mL
same,Activity,U-87MG ATCC [17],inactive
same,Activity,HeLa [18],inactive
same,Activity,SH-SY5Y [19],Active
same,Activity,U-87MG ATCC [20],Active
same,Activity,HeLa [21],inactive
same,Activity,SH-SY5Y [22],inactive
same,Activity,U-87MG ATCC [23],inactive
same,Activity,SH-SY5Y [24],Dose-dependent effect
same,MIC,Pseudomonas aeruginosa [3],128 µg/mL
CN(C)[C@@H]1C(O)=C(C(N)=O)C(=O)[C@@]2(O)C(O)=C3C(=O)c4c(O)cccc4[C@@](C)(O)[C@H]3C[C@@H]12 [TETRACYCLINE],MIC,Bacillus subtilis [1],8 µg/mL
same,MIC,Escherichia coli [2],2 µg/mL
same,MIC,Pseudomonas aeruginosa [3],1 µg/mL
NC[C@H]1O[C@H](O[C@H]2[C@H](O)[C@@H](O[C@H]3O[C@H](CO)[C@@H](O)[C@H](N)[C@H]3O)[C@H](N)C[C@@H]2N)[C@H](O)[C@@H](O)[C@@H]1O [KANAMYCIN],MIC,Bacillus subtilis [1],> 256 µg/mL
same,MIC,Escherichia coli [2],16 µg/mL
same,MIC,Pseudomonas aeruginosa [3],2 µg/mL
CCn1cc(C(=O)O)c(=O)c2ccc(C)nc21 [NALIDIXIC ACID],MIC,Bacillus subtilis [1],8 µg/mL
same,MIC,Escherichia coli [2],16 µg/mL
same,MIC,Pseudomonas aeruginosa [3],2 µg/mL
CC1(C)S[C@@H]2[C@H](NC(=O)[C@H](N)c3ccccc3)C(=O)N2[C@H]1C(=O)O [AMPICILLIN],MIC,Bacillus subtilis [1],> 256 µg/mL
same,MIC,Escherichia coli [2],> 256 µg/mL
same,MIC,Pseudomonas aeruginosa [3],128 µg/mL
CC[C@H]1OC(=O)[C@H](C)[C@@H](O[C@H]2C[C@@](C)(OC)[C@@H](O)[C@H](C)O2)[C@H](C)[C@@H](O[C@@H]2O[C@H](C)C[C@H](N(C)C)[C@H]2O)[C@](C)(O)C[C@@H](C)C(=O)[C@H](C)[C@@H](O)[C@]1(C)O [ERYTHROMYCIN],MIC,Bacillus subtilis [1],< 0.125 µg/mL
same,MIC,Escherichia coli [2],128 µg/mL
same,MIC,Pseudomonas aeruginosa [3],< 0.125 µg/mL
C=CC1=C(C)c2cc3[nH]c(cc4nc(cc5[nH]c(cc1n2)c(C)c5CCC(=O)O)C(CCC(=O)O)=C4C)c(C)c3C=C [PROTOPORPHYRIN],MIC,Bacillus subtilis [1],100 µg/mL
same,Activity,Bacillus subtilis [4],Active
same,Activity,HeLa [5],inactive
same,Activity,HeLa [6],Dose-dependent effect
same,MIC,Bacillus subtilis [7],80 µg/mL
same,MIC,Escherichia coli [2],128 µg/mL
same,Activity,Pseudomonas aeruginosa [8],Active
same,Activity,Bacillus subtilis [9],inactive
same,Activity,SH-SY5Y [10],inactive
same,Activity,U-87MG ATCC [11],inactive
same,MIC,Pseudomonas aeruginosa [12],128 µg/mL
same,Activity,HeLa [13],Active
same,Activity,U-87MG ATCC [14],Dose-dependent effect
same,Activity,SH-SY5Y [15],inactive
same,MIC,Escherichia coli [16],128 µg/mL
same,Activity,U-87MG ATCC [17],inactive
same,Activity,HeLa [18],inactive
same,Activity,SH-SY5Y [19],Active
same,Activity,U-87MG ATCC [20],Active
same,Activity,HeLa [21],inactive
same,Activity,SH-SY5Y [22],inactive
same,Activity,U-87MG ATCC [23],inactive
same,Activity,SH-SY5Y [24],Dose-dependent effect
same,MIC,Pseudomonas aeruginosa [3],128 µg/mL
